Test [1] deals with T1, Growth hormone secretagogue receptor type 1 (Homo sapiens, UniProt Q92847). Description: Inhibition of ghrelin-induced increase of intracellular [Ca2+] in CHO K cell FLIPR assay. Format: functional, cell-based.
In test [2] the target is T1, Growth hormone secretagogue receptor type 1. Description: Inhibition of binding to human growth hormone secretagogue receptor.
The test system of test [3] is Rattus norvegicus. Kind of test: Oral bioavailability in rat. Format: functional, organism-based.
For test [4], the species on record is Rattus norvegicus. Description: Rate of metabolism measured in rat liver microsomes for 30 min. (Microsomes from liver hold many membrane-bound enzymes, among them those of drug oxidation.)

The source of these data is ChEMBL document CHEMBL1144334, “Synthesis and structure-activity relationships of isoxazole carboxamides as growth hormone secretagogue receptor antagonists” (Bioorg Med Chem Lett, 2005).

For orientation: IC50 means the concentration that gives 50% inhibition.

T1 sequence (Q92847 whole entry): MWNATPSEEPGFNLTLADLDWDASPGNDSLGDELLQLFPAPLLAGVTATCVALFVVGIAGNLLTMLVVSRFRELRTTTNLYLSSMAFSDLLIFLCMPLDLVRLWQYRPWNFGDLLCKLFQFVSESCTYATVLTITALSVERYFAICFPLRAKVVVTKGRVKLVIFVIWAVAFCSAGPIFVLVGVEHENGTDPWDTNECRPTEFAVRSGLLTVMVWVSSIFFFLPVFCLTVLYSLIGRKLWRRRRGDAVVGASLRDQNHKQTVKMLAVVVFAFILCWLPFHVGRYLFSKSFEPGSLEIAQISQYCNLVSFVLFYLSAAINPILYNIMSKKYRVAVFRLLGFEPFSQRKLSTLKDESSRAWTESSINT

For `Cc1onc(-c2c(Cl)cccc2Cl)c1C(=O)Nc1ccccc1C(=O)NCc1ccccc1`, the IC50 in test [1] came out at 10500 nM; in test [2], 1200 nM.
The matching figures for `Cc1onc(-c2c(Cl)cccc2Cl)c1C(=O)Nc1ccccc1C(=O)NCc1ccc2c(c1)OCO2`: 4900 nM and 350 nM.
The corresponding values for `CCN(CC)c1ccc(NC(=O)c2c(-c3ccccc3[N+](=O)[O-])noc2C)cc1` are 620 nM and 550 nM.
Regarding `CCN(CC)Cc1ccc(NC(=O)c2c(-c3c(Cl)cccc3Cl)noc2C)cc1`, the 50% inhibitory concentration (IC50) in test [2] was more than 10000 nM.
In turn, `CCC(CC)c1ccc(NC(=O)c2c(-c3c(Cl)cccc3Cl)noc2C)cc1` showed a half-maximal inhibitory concentration (IC50) in test [2] of more than 10000 nM.
In the case of `CCN(CC)c1ccc(NC(=O)c2c(-c3c(Cl)cccc3Cl)noc2CCC2OCCCO2)cc1`, in test [1], the IC50 is 14 nM.
Regarding `CCN(CC)c1ccc(NC(=O)c2c(-c3ccccc3-c3ccccc3)noc2C)cc1`, the results for the half-maximal inhibitory concentration (IC50) in test [1] and in test [2] were 6300 nM and 1300 nM, respectively.
The matching figures for `CCN(CC)c1ccc(NC(=O)c2c(-c3ccccc3Cl)noc2C)cc1`: 250 nM and 690 nM.
The corresponding values for `Cc1onc(-c2c(Cl)cccc2Cl)c1C(=O)Nc1ccccc1CC1c2ccccc2CCN1C` (centres undefined) are 1700 nM and 980 nM.
The matching figures for `Cc1onc(-c2c(Cl)cccc2Cl)c1C(=O)Nc1ccccc1C(=O)N1CCCCCC1`: 510 nM and 860 nM.
In the case of `CCN(C)c1ccc(NC(=O)c2c(-c3c(Cl)cccc3Cl)noc2C)cc1`, the concentration for half-maximal inhibition (IC50) in test [1] worked out at 4700 nM; in test [2] it was 5500 nM.
The matching figures for `CCN(CC)c1ccc(NC(=O)c2c(-c3c(Cl)cccc3Cl)noc2C)c(C#N)c1`: 4500 nM and 9000 nM.
For `CCCN(CC)c1ccc(NC(=O)c2c(-c3c(Cl)cccc3Cl)noc2C)cc1`, the results for the concentration for half-maximal inhibition (IC50) in test [1] and in test [2] were 510 nM and 410 nM, respectively.
In the case of `CCN(CC)c1ccc(NC(=O)c2c(-c3c(Cl)cccc3Cl)noc2C)c(C)c1`, the IC50 in test [1] was 39 nM; in test [2], 37 nM. In the test on Rattus norvegicus [3], this compound gave a bioavailability of 1%.
As for `CCN(CC)c1ccc(NC(=O)c2c(-c3c(Cl)cccc3Cl)noc2C)c(OC)c1`, the results for the half-maximal inhibitory concentration (IC50) in test [1] and in test [2] were 2900 nM and 600 nM, respectively.
The matching figures for `CCN(CC)c1ccc(NC(=O)c2c(-c3ccccc3OC)noc2C)cc1`: 6800 nM and 4000 nM.
The corresponding values for `CCN(CC)c1ccc(NC(=O)c2c(-c3c(Cl)cccc3Cl)noc2CCC2OCCCO2)c(C)c1` are 10 nM and 9 nM.
Take `O=C(Nc1ccccc1C(=O)N1CCCCC1)c1c(-c2c(Cl)cccc2Cl)noc1CCC1OCCCO1`: the concentration for half-maximal inhibition (IC50) in test [1] was 7400 nM; in test [2] it was 7500 nM.
As for `CCN(CC)c1ccc(NC(=O)c2c(-c3c(Cl)cccc3Cl)noc2C)cc1Cl`, the concentration for half-maximal inhibition (IC50) in test [2] is more than 10000 nM.
In turn, `CCN(CC)c1ccc(NC(=O)c2c(-c3c(Cl)cccc3Cl)noc2C)cc1` gave a Rate of metabolism in the test filed under Rattus norvegicus [4] of 800 pM/mg/min. In the test on Rattus norvegicus [3], this compound returned a bioavailability of 4%.
Turning to `Cc1onc(-c2c(Cl)cccc2Cl)c1C(=O)Nc1ccccc1C(=O)N1CCCCC1`, the half-inhibitory concentration (IC50) in test [1] was found to be 2300 nM; in test [2], 2200 nM.
Turning to `CCN(CCO)c1ccc(NC(=O)c2c(-c3c(Cl)cccc3Cl)noc2C)cc1`, the half-maximal inhibitory concentration (IC50) was 3100 nM in test [1] and 9200 nM in test [2].
`Cc1onc(-c2c(Cl)cccc2Cl)c1C(=O)Nc1ccc(N2CCCCC2)cc1` had a half-inhibitory concentration (IC50) in test [2] of more than 10000 nM.
Take `CCN(CC)c1ccc(NC(=O)c2c(-c3ccc(Cl)cc3)noc2C)cc1`: the half-inhibitory concentration (IC50) in test [1] is 6000 nM; in test [2], 7100 nM.
For `CCNc1ccc(NC(=O)c2c(-c3c(Cl)cccc3Cl)noc2C)cc1`, the half-maximal inhibitory concentration (IC50) in test [2] is more than 10000 nM.
On to `CCN(CC)c1ccc(NC(=O)c2c(-c3ccccc3)noc2C)cc1`, for which the half-maximal inhibitory concentration (IC50) in test [1] is 7600 nM; in test [2], 8200 nM.
The matching figures for `CCN(CC)C(=O)c1ccccc1NC(=O)c1c(-c2c(Cl)cccc2Cl)noc1C`: 2500 nM and 1900 nM.
`CCN(CC)c1ccc(NC(=O)c2c(-c3cccc(Cl)c3)noc2C)cc1` yielded a 50% inhibitory concentration (IC50) in test [2] of 18500 nM.
Take `CCN(CC)c1ccc(NC(=O)c2c(-c3c(Cl)cccc3Cl)noc2C)cc1C`: the half-inhibitory concentration (IC50) in test [1] was more than 10000 nM; in test [2], more than 100 nM.
With `CCc1cc(N(CC)CC)ccc1NC(=O)c1c(-c2c(Cl)cccc2Cl)noc1C`, the 50% inhibitory concentration (IC50) in test [1] was determined as 41 nM; in test [2], 370 nM.
As for `CCN(CC)c1ccc(NC(=O)c2c(-c3ccccc3Br)noc2C)cc1`, the figures for the 50% inhibitory concentration (IC50) in test [1] and in test [2] were 280 nM and 340 nM, respectively.
In test [2], `CCN(C(C)=O)c1ccc(NC(=O)c2c(-c3c(Cl)cccc3Cl)noc2C)cc1` returned an IC50 of more than 10000 nM.
For `CCN(CC)c1ccc(NC(=O)c2c(-c3c(Cl)cccc3Cl)noc2C)c(C(F)(F)F)c1`, the values for the IC50 in test [1] and in test [2] were more than 10000 nM and 4100 nM, respectively.
